Experimental data taken from PMC4791210 (International immunopharmacology, 2015).

Tests used:
[1] = system: human neutrophils; details: cited from earlier work; for Inhibition of fMLF-induced Ca2+ mobilization in human neutrophils / Inhibition of fMLF-induced Ca2+ flux in neutrophils: result in words
[2] = target: T1, FPR1 (Homo sapiens, UniProt P21462); details: result in words; cited from earlier work
T1 sequence (P21462 1-350): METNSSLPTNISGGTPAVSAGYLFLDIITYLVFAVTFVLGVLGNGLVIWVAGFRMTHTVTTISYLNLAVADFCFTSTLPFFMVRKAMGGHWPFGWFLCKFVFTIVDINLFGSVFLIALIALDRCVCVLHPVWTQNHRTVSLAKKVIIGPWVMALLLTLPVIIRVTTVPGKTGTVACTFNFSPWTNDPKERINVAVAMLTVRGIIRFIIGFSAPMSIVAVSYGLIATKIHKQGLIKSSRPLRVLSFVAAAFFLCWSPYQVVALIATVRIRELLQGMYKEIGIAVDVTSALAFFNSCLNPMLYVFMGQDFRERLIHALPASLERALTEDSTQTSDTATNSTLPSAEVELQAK

[3] = target: T1, FPR1; details: cited from earlier work
[4] = system: human neutrophils; details: result in words; no data shown; cited from earlier work
[5] = target: T1, FPR1; details: result in words; no data shown; cited from earlier work
[6] = target: T1, FPR1; assay: Direct activation of Ca2+ flux in FPR1 transfected HL-60 cells; assay type: cell-based
[7] = system: human neutrophils; assay: Direct activation of Ca2+ flux in human neutrophils; assay type: cell-based; details: Neutrophil, read-out: Human Neutrophils Activation (EC50, μM)
[8] = system: human monocytes; details: read-out: IC50, inhibition of fMLF-induced Ca2+ flux in human monocytes; cited from earlier work
[9] = system: FPR1; details: high concentrations; cited from earlier work
[10] = system: fMLF-stimulated neutrophils; details: list of responses inhibited; ref per compound in References column of Table 1; cited from earlier work
[11] = system: FPR1; details: read-out: IC50, blocking of fMLF binding to FPR1; cited from earlier work
[12] = target: T1, FPR1; details: human neutrophils; cited from earlier work
[13] = target: T1, FPR1; details: cited from earlier work; remark: listed apart in the source
[14] = system: neutrophils; details: read-out: IC50, inhibition of fMLF-stimulated neutrophil degranulation; cited from earlier work
[15] = system: fMLF-stimulated neutrophils; details: result in words; cited from earlier work
[16] = system: rat neutrophils; details: fMLF-stimulated rat neutrophils, cited from earlier work
[17] = system: FPR1; details: cited from earlier work
[18] = system: monocytes; details: read-out: IC50, inhibition of fMLF-induced monocyte locomotion; cited from earlier work
[19] = system: FPR2; details: cited from earlier work
[20] = target: T1, FPR1; details: read-out: IC50, displacement of [3H]-fMLF; FPR1-transfected RBL cells; cited from earlier work
[21] = animal experiments; cited from earlier work
[22] = animal experiments; cited from earlier work; remark: listed apart in the source

## COc1ccc(-c2coc3cc(O)cc(O)c3c2=O)cc1 [Biochanin A]
[1]
  Inhibition of fMLF-induced Ca2+ mobilization in human neutrophils: inhibited
[2]
  Inhibition of fMLF-induced Ca2+ flux in FPR1-HL60 cells: inhibited
[3]
  Inhibition of binding of labeled ligand (WKYMVm-FITC) to FPR1-HL60 cells: did not inhibit binding
[4]
  Direct agonist activity in primary neutrophils: direct agonist activity
[5]
  Direct agonist activity in FPR1-HL60 cells: direct agonist activity

## C[C@H](CCC(=O)O)[C@H]1CC[C@H]2[C@@H]3[C@H](O)C[C@@H]4C[C@H](O)CC[C@]4(C)[C@H]3CC[C@]12C [Chenodeoxycholic acid (CDCA), Chenodeoxycholic acid]
[6]
  EC50: 40.3 ± 4.5 µM
[7]
  EC50: 49.5 ± 5.1 µM
[8]
  IC50: 40 µM
[9]
  Concentrations that antagonize FPR1 and inhibit 3H-fMLF binding: ≥ 100 µM

## C[C@H](CCC(=O)O)[C@H]1CC[C@H]2[C@@H]3CC[C@@H]4C[C@H](O)CC[C@]4(C)[C@H]3C[C@H](O)[C@]12C [Deoxycholic acid (DCA), Deoxycholic acid]
[6]
  EC50: 40.9 ± 5.5 µM
[7]
  EC50: 49 ± 5.4 µM
[9]
  Concentrations that antagonize FPR1 and inhibit 3H-fMLF binding: ≥ 100 µM

## CC(C)=CCOc1c2occc2cc2ccc(=O)oc12 [Imperatorin]
[6]
  EC50: 50.9 ± 4.7 µM
[7]
  EC50: 31.1 ± 3.6 µM
[10]
  fMLF-induced Responses Inhibited in Neutrophils: O2^−· production

## COc1ccc(C[C@H]2COC(=O)[C@@H]2Cc2ccc(O)c(O)c2)cc1OC [Lignan PP-6, (2R, 3R)-2-(3′,4′-dihydroxybenzyl)-3-(3″,4″-dimethoxybenzyl)butyrolactone]
[11]
  IC50: ~1500 nM

## COc1cc(O)c2c(=O)c(OC)c(-c3ccc(O)c(OC)c3)oc2c1 [MSF-2, 5-hydroxy-2-(4-hydroxy-3-methoxyphenyl)-3,7-dimethoxy-4H-chromen-4-one]
[12]
  Interference with fMLF binding: did not interfere

## CC(=O)OC1COC(OC2C(O)C(C)OC(OC3C(OC4CCC5(C)C(CCC6(C)C5CC=C5C7CC(C)(C)CCC7(C(=O)O)CCC56C)C4(C)CO)OCC(O)C3O)C2O)C(O)C1OC(C)=O [SMG-1, hederagenin 3-O-(3,4-O-di-acetyl-α-L-arabinopyranoside)-(1→3)-α-l-rhamnopyranosyl-(1→2)-α-l-arabinopyranoside]
[13]
  Binding of fluorescent FPR1 ligand in human neutrophils: blocked binding

## COc1ccc(-c2coc3cc(O)c(OC)cc3c2=O)cc1 [afrormosin]
[1]
  Inhibition of fMLF-induced Ca2+ mobilization in human neutrophils: none
[14]
  IC50: ~67 µM

## C=C(C)[C@@H]1CC[C@]2(C(=O)O)CC[C@]3(C)[C@H](CC[C@@H]4[C@@]5(C)CC[C@H](O)C(C)(C)[C@@H]5CC[C@]43C)[C@@H]12 [betulinic acid]
[15]
  Effect on fMLF-induced release of HNE: did not affect

## COc1c(C(=O)CCc2ccccc2)c(O)c(O)c2c1/C(=C/c1ccccc1)C(=O)O2 [bractelactone]
[1]
  Inhibition of fMLF-induced Ca2+ flux in neutrophils: did not inhibit

## O=c1c(-c2ccc(O)cc2)coc2cc(O)ccc12 [daidzein]
[1]
  Inhibition of fMLF-induced Ca2+ mobilization in human neutrophils: none

## COc1ccc(-c2coc3cc(O)ccc3c2=O)cc1 [formononetin]
[1]
  Inhibition of fMLF-induced Ca2+ mobilization in human neutrophils: none

## O=c1c(-c2ccc(O)cc2)coc2cc(O)cc(O)c12 [genistein]
[1]
  Inhibition of fMLF-induced Ca2+ mobilization in human neutrophils: none and did not antagonize
[2]
  Inhibition of fMLF-induced Ca2+ flux in FPR1-HL60 cells: did not antagonize

## COc1c(O)c(OC)c2c(c1OC)O[C@H](c1ccccc1)CC2=O [isopedicin]
[1]
  Inhibition of fMLF-induced Ca2+ flux in neutrophils: did not inhibit

## CC[C@H](CC[C@@H](C)[C@H]1CC[C@H]2[C@@H]3CC(=O)C4=CC(=O)CC[C@]4(C)[C@H]3CC[C@]12C)C(C)C [stigmast-4-ene-3,6-dione]
[16]
  Concentrations that inhibited O2−· production: 30 to 100 µM

## CC[C@H](CC[C@@H](C)[C@H]1CC[C@H]2[C@@H]3CC(=O)C4CC(=O)CC[C@]4(C)[C@H]3CC[C@]12C)C(C)C (some centres unmarked) [stigmastane-3,6-dione]
[16]; result in words
  Inhibition of O2−· production: non-active

## C[C@H](CCC(=O)NCCS(=O)(=O)O)[C@H]1CC[C@H]2[C@@H]3[C@@H](O)C[C@@H]4C[C@H](O)CC[C@]4(C)[C@H]3CC[C@]12C [tauroursodeoxycholic acid]
[1]; read-out: IC50, inhibition of fMLF-induced Ca2+ mobilization
  IC50: ~500 µM

## cyclized SRSRY: cyclized form of urokinase receptor-derived peptide Ser-Arg-Ser-Arg-Tyr (not fully specified; cyclized; printed: Ser-Arg-Ser-Arg-Tyr)
[17]
  Binding of FITC-labeled fMLF to FPR1 transfected cells: inhibited binding
[18]
  IC50: 0.01 nM

## cyclosporine A [CsA]
[19]
  Inhibitory effects on FPR2-mediated cellular functions: did not exhibit any obvious inhibitory effects
[20]
  IC50: 1800 nM

## cyclosporine H [CsH]
[19]
  Inhibitory effects on FPR2-mediated cellular functions: did not exhibit any obvious inhibitory effects
[21]
  Effect on acute inflammatory response evoked by cigarette smoke: attenuated
[22]
  Effect on fMLF-induced analgesia: blocked

## hecogenin
[16]
  Concentrations that inhibited O2−· production: 30 to 100 µM
